From ChEMBL document CHEMBL1201862, “PubChem BioAssay data set” (2004) come the findings set out here.

One series concerns H4. The series is described as follows: Luminescence Cell-Based Dose Response HTS to Identify Activators of 5'UTR Stem-Loop Driven Prion Protein mRNA Translation in H4 Neuroglioblastoma Cells. [Related pubchem assays: 1829 (Project Summary), 1814 (Primary HTS)]. It is filed as functional. The conditions noted are these: Homo sapiens.
Series [1] is described as follows: Luminescence Cell-Based Dose Response HTS to Identify Activators of Luciferase Translation or Activity in H4 […] Cells. [Related pubchem assays: 1829 (Project Summary), 1814 (Primary HTS)]. It is filed as functional.
Another series concerns the target Cytochrome P450 3A4 (Homo sapiens, UniProt P08684).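 Note: CYP3A4 tested as one member of a cytochrome P450 panel screen.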
The target in another series is Cytochrome P450 2C19 (Homo sapiens, UniProt P33261). The series is described as follows: Cytochrome panel assay with activity outcomes. Panel member name: p450-cyp2c19 Compounds with AC50 equal or less than 10 uM are considered active. It counts as functional.
Another series has as its target T1, Cytochrome P450 1A2 (Homo sapiens, UniProt P05177).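 Note: PubChem cytochrome P450 panel assay, CYP1A2 panel member.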
T1 sequence (P05177 whole entry): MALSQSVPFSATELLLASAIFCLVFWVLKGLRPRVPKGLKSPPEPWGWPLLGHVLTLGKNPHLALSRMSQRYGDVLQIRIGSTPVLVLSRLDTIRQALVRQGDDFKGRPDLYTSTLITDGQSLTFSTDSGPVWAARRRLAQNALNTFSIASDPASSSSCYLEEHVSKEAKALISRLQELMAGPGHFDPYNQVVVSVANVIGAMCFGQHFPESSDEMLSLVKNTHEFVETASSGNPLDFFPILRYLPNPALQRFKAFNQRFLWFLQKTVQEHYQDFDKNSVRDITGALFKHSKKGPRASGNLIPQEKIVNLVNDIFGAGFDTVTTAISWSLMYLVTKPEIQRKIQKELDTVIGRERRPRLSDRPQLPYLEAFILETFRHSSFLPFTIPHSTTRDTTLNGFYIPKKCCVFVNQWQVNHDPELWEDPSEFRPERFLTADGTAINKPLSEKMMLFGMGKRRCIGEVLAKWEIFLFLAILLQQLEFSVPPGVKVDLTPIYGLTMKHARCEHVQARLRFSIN

Series [2] can be described thus: Luminescence Cell-Based Dose Confirmation HTS to Identify Activators of 5'UTR Stem-Loop Driven Alpha-Synuclein mRNA Translation in H4 Neuroglioblastoma Cells. [Related pubchem assays: 1829 (Project Summary), 1814 (Primary HTS)]. It is filed as functional.
Series [3] addresses T2, Corticotropin-releasing factor receptor 2/Corticotropin-releasing factor-binding protein (Homo sapiens, UniProt P24387+Q13324).
T2 sequence (Q13324 whole entry): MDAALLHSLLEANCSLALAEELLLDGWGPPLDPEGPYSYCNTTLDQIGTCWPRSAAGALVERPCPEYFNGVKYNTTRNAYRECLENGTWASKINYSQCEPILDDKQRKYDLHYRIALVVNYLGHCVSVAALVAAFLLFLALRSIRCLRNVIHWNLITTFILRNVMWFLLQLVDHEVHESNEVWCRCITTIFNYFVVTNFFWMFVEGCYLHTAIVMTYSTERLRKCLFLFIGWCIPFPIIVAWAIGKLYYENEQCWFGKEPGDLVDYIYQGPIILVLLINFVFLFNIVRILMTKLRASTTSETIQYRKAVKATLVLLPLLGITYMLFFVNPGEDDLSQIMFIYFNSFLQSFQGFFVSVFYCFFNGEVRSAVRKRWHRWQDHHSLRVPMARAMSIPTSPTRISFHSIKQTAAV
T2 sequence (P24387 whole entry): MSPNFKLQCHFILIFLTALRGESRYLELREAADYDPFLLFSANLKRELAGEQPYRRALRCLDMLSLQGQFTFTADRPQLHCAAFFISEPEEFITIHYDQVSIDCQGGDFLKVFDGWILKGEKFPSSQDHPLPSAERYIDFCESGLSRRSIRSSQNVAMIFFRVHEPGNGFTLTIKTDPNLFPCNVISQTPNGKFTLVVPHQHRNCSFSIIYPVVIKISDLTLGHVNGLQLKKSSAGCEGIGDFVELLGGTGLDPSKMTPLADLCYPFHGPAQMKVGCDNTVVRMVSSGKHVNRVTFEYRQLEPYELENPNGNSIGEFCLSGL
Description: activators of CRF receptor 2 with binding protein – uHTS hits, confirmation (AID 602473). It is filed as functional. The conditions noted are these: read-out: EC50_Mean.

A word on the AC50: it is the concentration at which the activity in the assay is half-maximal.

Where a name gives a salt, the structure may show the parent alone. Calls of active or inactive are those of the source. Where only a bound is given, the exact number is not on record here.

Chain of Cytochrome P450 3A4 (P08684 whole entry): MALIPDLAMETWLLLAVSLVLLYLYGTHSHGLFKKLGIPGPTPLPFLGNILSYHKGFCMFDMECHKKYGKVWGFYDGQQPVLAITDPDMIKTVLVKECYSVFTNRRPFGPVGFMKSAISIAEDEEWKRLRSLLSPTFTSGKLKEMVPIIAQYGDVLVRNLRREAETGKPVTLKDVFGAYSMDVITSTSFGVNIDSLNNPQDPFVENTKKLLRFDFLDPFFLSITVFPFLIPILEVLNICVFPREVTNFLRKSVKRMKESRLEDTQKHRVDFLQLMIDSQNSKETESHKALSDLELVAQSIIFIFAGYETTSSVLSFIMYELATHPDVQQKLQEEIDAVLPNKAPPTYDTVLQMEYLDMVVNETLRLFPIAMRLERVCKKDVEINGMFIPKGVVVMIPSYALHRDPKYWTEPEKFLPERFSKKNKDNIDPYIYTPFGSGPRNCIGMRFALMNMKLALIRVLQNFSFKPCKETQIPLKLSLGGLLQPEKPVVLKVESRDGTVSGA
Chain of Cytochrome P450 2C19 (P33261 whole entry): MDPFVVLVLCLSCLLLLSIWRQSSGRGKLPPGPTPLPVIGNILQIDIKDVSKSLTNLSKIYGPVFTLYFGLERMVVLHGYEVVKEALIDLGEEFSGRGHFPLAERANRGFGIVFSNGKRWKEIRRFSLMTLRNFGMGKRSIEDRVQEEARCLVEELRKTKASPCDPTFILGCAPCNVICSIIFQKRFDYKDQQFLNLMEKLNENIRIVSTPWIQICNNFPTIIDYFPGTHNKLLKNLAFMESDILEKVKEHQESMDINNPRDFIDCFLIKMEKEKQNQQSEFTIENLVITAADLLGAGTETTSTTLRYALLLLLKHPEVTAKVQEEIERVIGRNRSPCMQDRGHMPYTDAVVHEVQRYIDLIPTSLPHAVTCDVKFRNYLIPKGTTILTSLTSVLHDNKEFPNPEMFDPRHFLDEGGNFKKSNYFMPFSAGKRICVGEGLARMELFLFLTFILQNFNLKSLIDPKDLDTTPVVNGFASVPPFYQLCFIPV

`Cc1ccc(NC(=O)CN2CCCCCC2)c(Br)c1`: the EC50 with H4 is 59.9 µM (active); in series [1], 9.38 µM (active).
For `CO[C@@H]1COC(=O)[C@H](COCc2ccccc2)NC(=O)C/C=C\[C@@H](C)[C@H](OC)COC(=O)[C@@H](C)NC(=O)C/C=C\[C@H]1C`, the AC50 on Cytochrome P450 3A4 is 3.16 µM (inconclusive).
As to `CCc1ccccc1OC[C@@H](O)CN[C@H]1CCCc2ccccc21`, the AC50 at Cytochrome P450 2C19 (read-out: AC50) is 2 µM (inconclusive).
In the case of `CCNC(=O)CSc1nnc(C2CC2)n1-c1ccccc1`, the results for the AC50 on Cytochrome P450 3A4 and at Cytochrome P450 2C19 (read-out: AC50) were 28.2 µM (inconclusive) and 22.4 µM (inconclusive), respectively.
Regarding `O[C@@H](c1cc(-c2ccccc2)nc2c1ccc1ccccc12)[C@@H]1CCCCN1`, on Cytochrome P450 1A2, the AC50 was 5.01 µM (inconclusive).
Take `COc1ccc(/C=C2\CCCC3C2=NN(C(=O)c2ccco2)C3c2ccc(OC)c(OC)c2)cc1OC` (stereo unspecified): at Cytochrome P450 2C19 (read-out: AC50), the AC50 was 31.6 µM (inconclusive).
`CN(C)C(=O)Oc1cc(OC(=O)N(C)C)cc([C@@H](O)CNC(C)(C)C)c1`: the AC50 result on Cytochrome P450 2C19 was “inconclusive”.
`CCOc1ccc(Cl)cc1CNCCNCCO.Cl`: on Cytochrome P450 2C19, the AC50 result is recorded as “inconclusive”.
For `C=C1CCO[C@@]2([C@H](O)[C@@](C)(O)CO)NC(=O)[C@]1(O)NC2=O`, at Cytochrome P450 2C19, the half-maximal activity concentration (AC50) entry is reported as “inconclusive”.
As for `Cc1cnn(CCC(=O)NN=C(S)Nc2ccc(F)cc2)c1`, the AC50 at Cytochrome P450 3A4 and at Cytochrome P450 2C19 (read-out: AC50) was 17.8 µM (inconclusive) in each case.
As to `O=C(c1ccco1)N1CCn2c1nc1ccccc12`, the EC50 in the series with H4 was 6.26 µM (active); in series [1], 35.3 µM (active); in series [2], 1.12 µM (active).
As to `Oc1ccc2c3c1O[C@H]1c4oc5ccccc5c4C[C@]4(O)[C@H](C2)N(CC2CC2)CC[C@@]314`, on Cytochrome P450 3A4, the AC50 is 15.8 µM (inconclusive).
Turning to `COC(=O)[C@H](CCSC)NC(=O)NCc1ccccc1F`, the AC50 on Cytochrome P450 2C19 (read-out: AC50) is 0.0158 µM (inconclusive).
For `COc1ccc(C(CNC(=O)c2cc(O)nc3ccccc23)N2CCCC2)cc1` (stereo unspecified), the AC50 on Cytochrome P450 1A2 was 20 µM (inconclusive); on Cytochrome P450 3A4, 15.8 µM (inconclusive).
As to `O=c1c(CCc2ccccc2)nc2cnc(N3CCOCC3)nc2n1Cc1ccc(F)cc1`, the AC50 at Cytochrome P450 1A2 is 10 µM (inconclusive).
Turning to `c1ccc(Cn2c(Sc3nnnn3-c3ccccc3)nnc2-c2ccccc2)cc1`, the EC50 is > 120 µM (not active) with H4, 11.9 µM (active) in series [1] and > 120 µM (not active) in series [2].
For the compound `Cc1cc(N/C=C\C(=O)c2ccc(Cl)c(Cl)c2)no1`, the EC50 in the series with H4 was > 120 µM (not active); in series [1], 15 µM (active); in series [2], 2.53 µM (active).
On to `Cc1nn(-c2ccc3ccccc3c2)c(=O)c2ccccc12`, for which the EC50 with H4 is 29.7 µM (active); in series [1], 0.213 µM (active); in series [2], < 0.1 µM (active).
Consider `O=C1OC(c2ccccc2)=N/C1=C\N1CCCCC1`, for which the EC50 is > 120 µM (not active) with H4, 0.374 µM (active) in series [1] and 0.176 µM (active) in series [2].
Consider `Cn1c(=O)cc(OCCCC(=O)N2CCN(c3ccccc3)CC2)c2ccccc21`, for which the AC50 at Cytochrome P450 1A2 is 15.8 µM (inconclusive); on Cytochrome P450 3A4, 1.12 µM (inconclusive).
On to `CCOc1ccc(Nc2ncnc3c2nnn3Cc2ccccc2)cc1`, for which the EC50 is 30.9 µM (active) in the series with H4, 18.8 µM (active) in series [1] and 17.7 µM (active) in series [2].
Consider `COCCn1c(=O)c(-c2cccc(C#N)c2)nc2cnc(Oc3ccc(OC)cc3)nc21`, for which the results for the AC50 at Cytochrome P450 1A2 and on Cytochrome P450 2C19 (read-out: AC50) were 12.6 µM (inconclusive) and 39.8 µM (inconclusive), respectively.
For the compound `O=C(Nn1cc(C(=O)N2CCN(c3ccccc3F)CC2)c2ccccc2c1=O)c1cnccn1`, the AC50 is 12.6 µM (inconclusive) at Cytochrome P450 1A2 and 28.2 µM (inconclusive) on Cytochrome P450 3A4.
Turning to `O=[N+]([O-])c1cc(-c2n(-c3ccccn3)c3ccccc3[n+]2-c2ccccn2)ccc1Cl`, the EC50 with H4 was > 120 µM (not active); in series [1], 14.2 µM (active); in series [2], 56.9 µM (active).
Take `O=[N+]([O-])c1cccc(-c2cn(-c3ccccc3)c(S)n2)c1`: the results for the EC50 (in the series on H4; in series [1]; in series [2]) were > 120 µM (not active), > 120 µM (not active) and 5.64 µM (active), respectively.
Regarding `CCOC(=O)c1sc(NC(=O)c2cc(-c3ccccc3)nc3ccccc23)c(C#N)c1C`, the EC50 in series [3] is 0.544 µM (active).
For the compound `Cc1ccc2nc(NC(=O)C3CCCN(S(=O)(=O)c4c[nH]cn4)C3)sc2c1` (stereo unspecified), the figures for the EC50 (in the series with H4; in series [1]; in series [2]) were 20.8 µM (active), 23.4 µM (active) and 30.4 µM (active), respectively.
As to `CC(=O)Nc1cccc(OC(=O)c2ccoc2C)c1`, in series [3], the EC50 was 4.9 µM (active).
Regarding `CN(C(=O)c1ccc(S(=O)(=O)NC2CCCC2)cc1)C1CCCCC1`, the EC50 in series [3] was > 53 µM (inactive).
The same measure, in the same setting: then `O=C(Nc1ccc(SC(F)F)cc1)c1ccc2c(=O)n3c(nc2c1)CCC3`, with 1.4 µM (active).
As for `C=CCN1C(=O)NC(=O)/C(=C/c2cccn2C)C1=O`, on Cytochrome P450 1A2, the AC50 was 15.8 µM (inconclusive).
For the compound `CCOC(=O)N1CC=C2C(C#N)=C(N)C(C#N)(C#N)[C@H](c3ccccc3OCC)[C@H]2C1`, the EC50 (with H4; in series [1]; in series [2]) was > 120 µM (not active) each time.
`Nc1c(-c2ccccc2)cnn1-c1cccc(C(F)(F)F)c1`: the results for the EC50 (in the series with H4; in series [1]; in series [2]) were 8 µM (active), 56.7 µM (active) and 0.538 µM (active), respectively.
For the compound `COc1ccc(Oc2ncc3nc(-c4ccccc4)c(=O)n(C4CC4)c3n2)cc1`, on Cytochrome P450 2C19 (read-out: AC50), the AC50 is 31.6 µM (inconclusive).
With `CCc1ccc(N2CC(C(=O)NC3=NCCS3)CC2=O)cc1` (stereo unspecified), the AC50 at Cytochrome P450 1A2 was 20 µM (inconclusive).
Take `COc1ccc(CCNC(=O)Cn2cnc3c2c(=O)n(C)c(=O)n3C)cc1OC`: the AC50 on Cytochrome P450 1A2 is 3.16 µM (inconclusive); on Cytochrome P450 2C19, “inconclusive”.
In the case of `Cc1cccc(NC(=O)CSc2nnnn2C)n1`, the AC50 on Cytochrome P450 2C19 (read-out: AC50) was 39.8 µM (inconclusive).
With `Cc1ccc2c(c1)/C(=N/C1CCCCC1)c1cc3ccccc3nc1-2`, the EC50 with H4 is 0.408 µM (active); in series [1] it was 37.2 µM (active); in series [2] it was 14.9 µM (active).
Regarding `C/C(=N\NC(=O)c1ccccc1C)c1ccc(NC(=O)c2cccs2)cc1`, the figures for the AC50 at Cytochrome P450 1A2 and at Cytochrome P450 2C19 (read-out: AC50) were 22.4 µM (inconclusive) and 31.6 µM (inconclusive), respectively.
With `N=C(N)NC(=O)c1nc(Cl)c(N)nc1N` [AMILORIDE HYDROCHLORIDE], the concentration at half-maximal activity (AC50) at Cytochrome P450 1A2 is 6.31 µM (inconclusive).
Same read-out and setting: then `CNCCC=C1c2ccccc2CCc2ccccc21` [NORTRIPTYLINE], with 25.1 µM (inconclusive).
For `CS(=O)(=O)Nc1ccc([N+](=O)[O-])cc1OC1CCCCC1` [NS-398], the AC50 at Cytochrome P450 3A4 was 20 µM (inconclusive).
For `C[C@@H](C(=O)O)c1ccc(-c2ccccc2)c(F)c1` [TARENFLURBIL], on Cytochrome P450 1A2, the AC50 is 31.6 µM (inconclusive).
